Among the data in PubChem BioAssay AID608 (Sanford-Burnham Center for Chemical Genomics, 2007) are Kd values, retold here.

As a reminder, the Kd is the equilibrium constant for the complex coming apart.

Structures are written as SMILES. Activity calls are given as the source filed them. How the calls were made is not given here. Where a SMILES comes first, the peptide text is derived from it.

Chain of Peptidyl-prolyl cis-trans isomerase FKBP1A (Homo sapiens) (P62942 whole entry, looked up): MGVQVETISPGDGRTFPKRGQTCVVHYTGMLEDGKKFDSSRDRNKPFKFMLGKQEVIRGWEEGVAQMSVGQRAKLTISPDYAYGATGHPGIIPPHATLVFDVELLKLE

The assay has as its target Peptidyl-prolyl cis-trans isomerase FKBP1A (Homo sapiens) (UniProt P62942). Description: FKBP12 binders, biophysical, NMR detection (AID 608). The note with it: NMR binding, purified FKBP12.
Regarding `O=C(O)CCC(=O)c1c[nH]c2ccccc12`, the Kd is > 4 mM (inactive).

In the case of `CC(=O)c1c(O)cc(C)n(Cc2ccccc2)c1=O`, the Kd is > 4 mM (inactive).

With `CC(=O)O[C@H]1CC[C@@]2(C)C(CC[C@]3(C)C2CC=C2C4CC(C)(C)CC[C@]4(C)CC[C@]23C)C1(C)C` (stereo partly drawn), the Kd was > 4 mM (inactive).

For the compound `Oc1ccc(/C=C/c2cc(O)cc(O)c2)cc1`, the Kd is > 4 mM (inactive).

As for `O/N=C1/CCCc2nonc21`, the Kd was > 4 mM (inactive).

In the case of `CC(=O)O[C@@H]1CC[C@@]2(C)C(CC[C@]3(C)C2CC=C2C4CC(C)(C)CC[C@]4(C(=O)O)CC[C@]23C)C1(C)C` (stereo partly drawn), the Kd was > 4 mM (inactive).

For the compound `CC[C@H](/C=C/C(C)C1CCC2C3CCC4=CC(=O)CC[C@]4(C)C3CC[C@]12C)C(C)C` (stereo partly drawn), the Kd was > 4 mM (inactive).

For `CNC(=O)Oc1ccc2c(c1)[C@]1(C)CCN(C)[C@@H]1N2C`, the Kd is > 4 mM (inactive).

As for `CC(=O)Nc1ccc(S(=O)(=O)NC2=NCCS2)cc1`, the Kd is > 4 mM (inactive).

Take `CC(=O)c1c(C)nc(-c2cccs2)n1O`: the Kd was > 4 mM (inactive).

On to `O=C(O)CCC(=O)Nc1nccs1`, for which the Kd is > 4 mM (inactive).

On to `O=P(c1ccccc1)(c1ccccc1)C1CCOCC1`, for which the Kd was > 4 mM (inactive).

With `COC(=O)Nc1c(C)n(C)n(-c2ccccc2)c1=O`, the Kd is > 4 mM (inactive).

`O=C(O)C1Cc2ccccc2N1` (stereo not drawn): the Kd is > 4 mM (inactive).

Regarding `COc1ccc2c(c1)OCc1c-2oc2cc(OC)ccc12`, the Kd is > 4 mM (inactive).

In the case of `Cc1cc([N+](=O)[O-])cc[n+]1[O-]`, the Kd is > 4 mM (inactive).

With `Cn1c(CO)nc2cc(N)ccc21`, the Kd is > 4 mM (inactive).

As for `COc1cc(C)c2c(c1C=O)Oc1c(c(C)c(O)c3c1C(O)OC3=O)OC2=O` (stereo not drawn), the Kd was > 4 mM (inactive).

Turning to `Cn1[nH]c(C(F)(F)F)cc1=O`, the Kd is > 4 mM (inactive).

For `Nc1nc(-c2ccc(F)c(F)c2)cs1`, the Kd was > 4 mM (inactive).

Regarding `CC(=O)N1CN(C(C)=O)CN(C(C)=O)C1`, the Kd is > 4 mM (inactive).

Consider `Cc1ccccc1NC(=S)NCCO`, for which the Kd is > 4 mM (inactive).

Consider `c1cc(C(N2CCOCC2)N2CCOCC2)ccn1`, for which the Kd was > 4 mM (inactive).

As for `O=C(c1cccc(C(F)(F)F)c1)N1CCCC1`, the Kd was > 4 mM (inactive).

As to `CCNC(CC(=O)Nc1cccc([N+](=O)[O-])c1)C(=O)O` (stereo not drawn), the Kd is > 4 mM (inactive).

Consider `Cc1ccc(CNc2ccc(O)cc2)cc1`, for which the Kd was > 4 mM (inactive).

In the case of `Cc1cc(C)nc(N2CC(=O)N(C)C2=N)n1`, the Kd is > 4 mM (inactive).

`C[C@@H](N)[C@@H](O)c1ccccc1`: the Kd is > 4 mM (inactive).

Consider `COCc1c(CN)cnc(C)c1N`, for which the Kd is > 4 mM (inactive).

For the compound `C[C@@H]1CC[C@@]2(OC1)O[C@H]1CC3C4CC[C@H]5C[C@@H](O)CC[C@]5(C)C4CC[C@]3(C)[C@H]1[C@@H]2C` (stereo partly drawn), the Kd is > 4 mM (inactive).

With `COC(=O)c1[nH]c2ccccc2c1C(=O)OC`, the Kd was > 4 mM (inactive).

With `Cn1nc(-c2ccccc2)cc1N`, the Kd is > 4 mM (inactive).

For `OCc1cccc2c1OCCO2`, the Kd was > 4 mM (inactive).

As for `COc1cc(O)c2c(=O)c(O)c(-c3ccc(O)c(O)c3)oc2c1`, the Kd was > 4 mM (inactive).

Turning to `O=C(O)CCCc1nc2ccccc2s1`, the Kd is > 4 mM (inactive).

As for `CN=C(c1ccc([N+](=O)[O-])cc1)N(C)C`, the Kd is > 4 mM (inactive).

As to `Cc1cc(C)cc(C(=O)N2CCC(C(N)=O)CC2)c1`, the Kd is > 4 mM (inactive).

As for `Nc1nc(-c2ccc(O)cc2)cs1`, the Kd was > 4 mM (inactive).

Turning to `O=c1c(O)cc([C@H]2Oc3cc(O)cc(O)c3C[C@H]2O)cc2c([C@H]3Oc4cc(O)cc(O)c4C[C@H]3O)cc(O)c(O)c12`, the Kd is > 4 mM (inactive).

For the compound `CSc1ccccc1NC(=O)c1ccoc1C`, the Kd was > 4 mM (inactive).

Regarding `CN1CCC(O)N1C(=O)c1ccccc1O` (stereo not drawn), the Kd was > 4 mM (inactive).

As to `COCC(=O)NC1CC(C)(C)NC(C)(C)C1`, the Kd is > 4 mM (inactive).

Consider `CN(C)c1nc(N)nc(Cn2ccnc2)n1`, for which the Kd was > 4 mM (inactive).

For `O=C(Nc1nnc(-c2ccncc2)o1)c1cccs1`, the Kd was > 4 mM (inactive).

Regarding `S=C(c1ccc(N2CCOCC2)cc1)N1CCOCC1`, the Kd was > 4 mM (inactive).

Take `CC1(C)NCCN2C(=O)CSC21` (stereo not drawn): the Kd is > 4 mM (inactive).

In the case of `Cc1cc(C(=O)NCc2cccs2)cs1`, the Kd was > 4 mM (inactive).

`CC(=O)N[C@@H](CC(=O)O)C(=O)N[C@@H](CCC(=O)O)C(=O)O` (Ac-Asp-Glu-OH): the Kd is > 4 mM (inactive).

Consider `Nc1cc(F)ccc1-n1ccnc1`, for which the Kd was > 4 mM (inactive).

For `CC(=O)NC(C)C12CC3CC(CC(C(=O)O)(C3)C1)C2` (stereo not drawn), the Kd is > 4 mM (inactive).

With `Cc1cc(=O)cc(C)n1NC(N)=S`, the Kd is > 4 mM (inactive).

Consider `O=c1c(O)c(-c2ccccc2)oc2cc(O)ccc12`, for which the Kd is > 4 mM (inactive).

For `CC(=O)C1CC[C@H]2C3CC[C@H]4C[C@H](O)CC[C@]4(C)C3CC[C@]12C` (stereo partly drawn), the Kd is > 4 mM (inactive).

`Cc1cccc(CSc2nncc(=O)[nH]2)c1`: the Kd was > 4 mM (inactive).

Turning to `O=C(/C=C/C=C/c1ccc2c(c1)OCO2)N1CCCCC1`, the Kd is > 4 mM (inactive).

For the compound `COc1ccc2c(c1)OC/C(=C\c1ccc(OC)c(O)c1)C2=O`, the Kd is > 4 mM (inactive).

For `O=C(Oc1ccc(-c2nnco2)cc1)N1CCOCC1`, the Kd was > 4 mM (inactive).

`COc1c2c(cc3c1OCO3)CCN(C)C2`: the Kd is > 4 mM (inactive).

As for `CC(=O)CC1CCCCN1` (stereo not drawn), the Kd is > 4 mM (inactive).

With `COc1c2c(cc3c1OCO3)C13C=C[C@H](OC)CC1N(C2)CC3O` (stereo partly drawn), the Kd was > 4 mM (inactive).

For the compound `Cc1cc(C)c(C(N)=O)c(=S)[nH]1`, the Kd was > 4 mM (inactive).

For the compound `c1ccc2sc(CCc3nc4ccccc4s3)nc2c1`, the Kd entry was “inactive”.

Regarding `Cc1cc(=O)oc2c1c(C)nn2CN1CCN(C)CC1`, the Kd was > 4 mM (inactive).

On to `O=C(O)c1cncc(-c2ccccc2)c1`, for which the Kd is > 4 mM (inactive).

Take `Cc1cc(O)cc(=O)n1CCCC(=O)O`: the Kd is > 4 mM (inactive).

Regarding `CC(=O)c1csc(-c2cc(C)on2)n1`, the Kd is > 4 mM (inactive).

As for `COc1ccc2c(Cl)c(C(=O)N3CC(C)OC(C)C3)sc2c1` (stereo not drawn), the Kd is > 13.6 mM (inactive).

As to `NC(=O)c1ccc(C(N)=O)c(-c2ccccc2)c1`, the Kd was > 4 mM (inactive).

On to `O=c1/c(=C/c2ccccc2F)sc2ncnn12`, for which the Kd is > 4 mM (inactive).

Regarding `O=C(CC1Nc2ccccc2NC1=O)Nc1ccc(O)cc1` (stereo not drawn), the Kd is > 4 mM (inactive).

In the case of `O=c1n(-c2ccccc2)c(=O)n2n1CCCC2`, the Kd is > 4 mM (inactive).

On to `O=C1c2ccccc2C(=O)c2c(O)c(O)cc(O)c21`, for which the Kd is > 4 mM (inactive).

For `O=C(O)c1ncoc1-c1ccccc1`, the Kd is > 4 mM (inactive).

As to `COC(=O)c1cccs1`, the Kd was > 4 mM (inactive).

As for `O=C(Nc1ccon1)c1csc2ccccc12`, the Kd was > 4 mM (inactive).

For the compound `O=C1CNC(=O)N1c1cccc(Cl)c1`, the Kd was > 4 mM (inactive).

`NS(=O)(=O)c1ccc2c3c(cccc13)C(=O)N2`: the Kd was > 4 mM (inactive).

As to `C=C(C)CSc1nc2nc(C)cc(C)n2n1`, the Kd was > 4 mM (inactive).

On to `O=C1CNC(=O)N1Cc1ccc(Br)cc1`, for which the Kd is > 4 mM (inactive).

For the compound `COC1=CC(C)[C@@H]2C[C@H]3OC(=O)C[C@H]4C(C)=C(OC)C(=O)C([C@@]34C)[C@@]2(C)C1=O` (stereo partly drawn), the Kd is > 4 mM (inactive).

For the compound `O=C(O)c1ccc(-n2cncn2)cc1`, the Kd was > 4 mM (inactive).

For `O=C(Nc1ccc2c(c1)OCO2)c1ccc(=O)[nH]n1`, the Kd was > 4 mM (inactive).

Turning to `O=C(O)c1ccc(CN2CCOCC2)cc1`, the Kd is > 4 mM (inactive).

`NS(=O)(=O)c1ccc(NC(=O)c2ccccc2F)cc1`: the Kd was > 4 mM (inactive).

With `CC(=O)Nc1ccc(S(=O)(=O)Nc2cc(C)on2)cc1`, the Kd was > 4 mM (inactive).

As for `c1ccc2[nH]c(CCn3cncn3)nc2c1`, the Kd was > 4 mM (inactive).

For the compound `Cc1c(C(=O)Nn2cnnc2)oc2ccccc12`, the Kd is > 4 mM (inactive).

As for `Nc1ccc2c(c1)S(=O)(=O)C=C2`, the Kd was > 4 mM (inactive).

With `O=C1CCCC(=O)N1Cc1ccco1`, the Kd is > 4 mM (inactive).

In the case of `COc1cc(N)ccc1NC(=O)c1cccs1`, the Kd is > 4 mM (inactive).

As for `Nc1cccc(C(=O)Nc2ccc(N)cc2Cl)c1`, the Kd is > 4 mM (inactive).

With `Cn1c(=O)[nH]c(=O)c2c1ncn2CCN1CCCCC1`, the Kd was > 4 mM (inactive).

Regarding `O=C(Cn1cncn1)c1ccc(F)c(F)c1`, the Kd was > 4 mM (inactive).

Take `O=C(O)c1cc(O)c(O)c(O)c1`: the Kd is > 4 mM (inactive).

For `O=C(O)/C=C/C(=O)Nc1ccccc1C(F)(F)F`, the Kd is > 4 mM (inactive).

Consider `OCc1ccc(-n2cccn2)cc1`, for which the Kd is > 4 mM (inactive).

With `O=S1(=O)CCC(NC(=S)Nc2ccccn2)C1` (stereo not drawn), the Kd is > 4 mM (inactive).

On to `N=Cc1c(O)n(-c2cccc(Cl)c2)c(=O)[nH]c1=O`, for which the Kd was > 4 mM (inactive).

Take `COc1ccc(N2C(=N)C(C)(C)NC2=O)cc1`: the Kd was > 4 mM (inactive).

For `O=c1[nH]cc(CN2CCOCC2)c(=O)[nH]1`, the Kd was > 4 mM (inactive).

Consider `O=C(O)C1CCCN1Cc1c[nH]c2ccccc12` (stereo not drawn), for which the Kd was > 4 mM (inactive).

Turning to `COc1ccc(C2CC(=O)NN2)cc1OC1CCCC1` (stereo not drawn), the Kd is > 4 mM (inactive).

Consider `CCOc1nc(C)ccc1-c1noc(-c2ccco2)n1`, for which the Kd was > 4 mM (inactive).
